Each molecule was assayed against SUV420H1 enzyme (Homo sapiens, UniProt Q4FZB7) (assay: TR-FRET SAH SUV420H1 enzyme inhibition assay). Conditions: Histone Peptide H4(8-30)me1 and SAM, overnight at room temp, TR-FRET detection of SAH, read-out: TR-FRET SAH_SUV420H1 IC50.
Type: biochemical
Summary of the method: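 SUV420H1 (90 nM) preincubated 30 min with compound (3-fold dilutions, 50 to 0.00075 μM), then H4(8-30)me1 peptide 5 nM and SAM 4 nM added, overnight at room temp. SAH product detected by TR-FRET with Tb anti-SAH antibody and Oregon Green-SAH in RIPA buffer, 4 h; IC50 from Hill fit, asymptotes fixed 0-100%.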

Sequence of SUV420H1 enzyme (Q4FZB7 whole entry): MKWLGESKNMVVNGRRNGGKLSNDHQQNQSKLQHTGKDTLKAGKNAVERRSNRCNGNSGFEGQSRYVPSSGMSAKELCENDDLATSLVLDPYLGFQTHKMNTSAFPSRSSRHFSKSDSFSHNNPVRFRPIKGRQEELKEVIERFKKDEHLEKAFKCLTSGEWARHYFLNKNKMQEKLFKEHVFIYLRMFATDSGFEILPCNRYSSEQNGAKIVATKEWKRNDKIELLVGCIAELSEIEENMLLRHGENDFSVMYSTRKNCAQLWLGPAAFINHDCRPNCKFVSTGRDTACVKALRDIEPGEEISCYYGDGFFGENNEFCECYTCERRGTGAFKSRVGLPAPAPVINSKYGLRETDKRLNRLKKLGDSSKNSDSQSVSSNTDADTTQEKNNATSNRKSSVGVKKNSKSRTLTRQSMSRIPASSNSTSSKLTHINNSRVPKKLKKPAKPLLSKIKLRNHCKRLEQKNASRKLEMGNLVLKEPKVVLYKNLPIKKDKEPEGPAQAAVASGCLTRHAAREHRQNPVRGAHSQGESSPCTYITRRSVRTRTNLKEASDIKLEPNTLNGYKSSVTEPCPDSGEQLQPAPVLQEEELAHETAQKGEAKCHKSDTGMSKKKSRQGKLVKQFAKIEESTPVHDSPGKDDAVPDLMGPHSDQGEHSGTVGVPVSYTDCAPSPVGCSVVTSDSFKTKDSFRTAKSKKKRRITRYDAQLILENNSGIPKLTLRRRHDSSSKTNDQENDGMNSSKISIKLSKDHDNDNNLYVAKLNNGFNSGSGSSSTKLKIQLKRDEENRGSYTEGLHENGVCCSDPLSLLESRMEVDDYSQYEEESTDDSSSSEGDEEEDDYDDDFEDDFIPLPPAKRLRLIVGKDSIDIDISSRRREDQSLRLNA

Point of comparison: `N#Cc1ccc(C(=O)NCc2cc3cc(Cl)cc(Cn4cnc5c(N)ncnc54)c3[nH]2)cc1` [Example 272, N-({7-[(6-amino-9H-purin-9-yl)methyl]-5-chloro-1H-indol-2-yl}methyl)-4-cyanobenzamide], IC50 378 nM. Against it:
- CC(N)c1cc2cc(Cl)cc(Cn3cnc4c(N)ncnc43)c2[nH]1 (stereo not drawn) [Example 88, 9-{[2-(1-aminoethyl)-5-chloro-1H-indol-7-yl]methyl}-9H-purin-6-amine] — 3.8-fold higher, 1430 nM
- CCc1ccccc1C(=O)NCc1cc2cc(Cl)cc(Cn3cnc4c(N)ncnc43)c2[nH]1 [Example 296, N-({7-[(6-amino-9H-purin-9-yl)methyl]-5-chloro-1H-indol-2-yl}methyl)-2-ethylbenzamide] — 1.6-fold higher, 623 nM
- CCc1nc2ccc(C(=O)NCc3cc4cc(Cl)cc(Cn5cnc6c(N)ncnc65)c4[nH]3)cc2[nH]1 [Example 368, N-({7-[(6-amino-9H-purin-9-yl)methyl]-5-chloro-1H-indol-2-yl}methyl)-2-ethyl-1H-benzimidazole-6-carboxamide] — 20-fold higher, 7610 nM
- Cc1cccc(C(=O)NCc2cc3cc(Cl)cc(Cn4cnc5c(N)ncnc54)c3[nH]2)c1 [Example 247, N-({7-[(6-amino-9H-purin-9-yl)methyl]-5-chloro-1H-indol-2-yl}methyl)-3-methylbenzamide] — 25-fold higher, 9380 nM
- Nc1ncnc2c1ncn2Cc1cc(Cl)cc2cc(CNC(=O)c3ccc4[nH]ncc4c3F)[nH]c12 [Example 350, N-({7-[(6-amino-9H-purin-9-yl)methyl]-5-chloro-1H-indol-2-yl}methyl)-4-fluoro-1H-indazole-5-carboxamide] — 7.2-fold higher, 2740 nM
- Cc1noc(C)c1C(=O)NCc1cc2cc(-c3cccc(C#N)c3)cc(Cn3cnc4c(N)ncnc43)c2[nH]1 [Example 172, N-({7-[(6-amino-9H-purin-9-yl)methyl]-5-(3-cyanophenyl)-H-indol-2-yl}methyl)-3,5-dimethyl-1,2-oxazole-4-carboxamide] — 5.7-fold lower, 66.1 nM
- Nc1ncnc2c1ncn2Cc1cc(Cl)cc2cc(CNC(=O)Cc3cccnc3)[nH]c12 [Example 231, N-({7-[(6-amino-9H-purin-9-yl)methyl]-5-chloro-1H-indol-2-yl}methyl)-2-(pyridin-3-yl)acetamide] — 6.6-fold higher, 2480 nM
- NCc1cc2cccc(Cn3cnc4c(N)ncnc43)c2[nH]1 [Example 8, 9-{[2-(aminomethyl)-1H-indol-7-yl]methyl}-9H-purin-6-amine] — 7.5-fold higher, 2820 nM
- Nc1ncnc2c1ncn2Cc1cc(Cl)cc2cc(CNC(=O)c3cncs3)[nH]c12 [Example 138, N-({7-[(6-amino-9H-purin-9-yl)methyl]-5-chloro-1H-indol-2-yl}methyl)-1,3-thiazole-5-carboxamide] — 4.3-fold higher, 1640 nM
- CNCc1cc2cc(Cl)cc(Cn3cnc4c(N)ncnc43)c2[nH]1 [Example 89, 9-({5-chloro-2-[(methylamino)methyl]-1H-indol-7-yl}methyl)-9H-purin-6-amine] — 6.9-fold higher, 2600 nM
- Nc1ncnc2c1ncn2Cc1cc(Cl)cc2cc(CNCc3cccc(OCCN4CCCCC4)c3)[nH]c12 [Example 325, 9-({5-chloro-2-[({3-[2-(piperidin-1-yl)ethoxy]benzyl}amino)methyl]-1H-indol-7-yl}methyl)-9H-purin-6-amine] — 8.3-fold higher, 3120 nM
- Nc1ncnc2c1ncn2Cc1cc(Cl)cc2cc(CNCc3ccccc3)[nH]c12 [Example 207, 9-({2-[(benzylamino)methyl]-5-chloro-1H-indol-7-yl}methyl)-9H-purin-6-amine] — 2.5-fold higher, 943 nM
- COc1ccc(-c2cc(Cn3cnc4c(N)ncnc43)c3[nH]c(CN)cc3c2)cn1 [Example 28, 9-{[2-(aminomethyl)-5-(6-methoxypyridin-3-yl)-1H-indol-7-yl]methyl}-9H-purin-6-amine] — within 1.5-fold, 426 nM
- Nc1ncnc2c1ncn2Cc1cc(Cl)cc2cc(CO)[nH]c12 [Example 7, {7-[(6-amino-9H-purin-9-yl)methyl]-5-chloro-1H-indol-2-yl}methanol] — 59-fold higher, 22200 nM
